In ChEMBL document CHEMBL1255189, “Structural basis for binding of cyclic 2-oxoglutarate analogues to factor-inhibiting hypoxia-inducible factor” (Bioorg Med Chem Lett, 2010):
The source made the active and inactive calls. The calls are words filed in the database; no cut-off is given here.

Legend:
Prolyl hydroxylase EGLN2 = Prolyl hydroxylase EGLN2 (Homo sapiens, UniProt Q96KS0); experiment: Inhibition of PHD1 by HTRF assay
[1] = target: Egl nine homolog 1 (Homo sapiens) (UniProt Q9GZT9); experiment: Inhibition of PHD2 at 1 mM by HTRF assay
Egl nine homolog 1 (Homo sapiens), sequence (Q9GZT9 2-426 limits assumed): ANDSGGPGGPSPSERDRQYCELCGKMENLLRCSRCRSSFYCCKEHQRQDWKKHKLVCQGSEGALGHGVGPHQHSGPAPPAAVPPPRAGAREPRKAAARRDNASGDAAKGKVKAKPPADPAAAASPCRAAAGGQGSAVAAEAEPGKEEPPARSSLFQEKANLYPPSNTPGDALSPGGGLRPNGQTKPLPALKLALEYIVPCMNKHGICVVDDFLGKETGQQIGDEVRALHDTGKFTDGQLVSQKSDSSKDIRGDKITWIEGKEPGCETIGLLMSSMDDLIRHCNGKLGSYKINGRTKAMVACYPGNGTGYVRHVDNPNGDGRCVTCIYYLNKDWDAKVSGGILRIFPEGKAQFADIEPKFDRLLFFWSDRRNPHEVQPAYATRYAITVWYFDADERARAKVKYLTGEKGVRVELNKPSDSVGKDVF

[2] = Inhibition of FIH by HTRF assay

Prolyl hydroxylase EGLN2, sequence (Q96KS0 whole entry): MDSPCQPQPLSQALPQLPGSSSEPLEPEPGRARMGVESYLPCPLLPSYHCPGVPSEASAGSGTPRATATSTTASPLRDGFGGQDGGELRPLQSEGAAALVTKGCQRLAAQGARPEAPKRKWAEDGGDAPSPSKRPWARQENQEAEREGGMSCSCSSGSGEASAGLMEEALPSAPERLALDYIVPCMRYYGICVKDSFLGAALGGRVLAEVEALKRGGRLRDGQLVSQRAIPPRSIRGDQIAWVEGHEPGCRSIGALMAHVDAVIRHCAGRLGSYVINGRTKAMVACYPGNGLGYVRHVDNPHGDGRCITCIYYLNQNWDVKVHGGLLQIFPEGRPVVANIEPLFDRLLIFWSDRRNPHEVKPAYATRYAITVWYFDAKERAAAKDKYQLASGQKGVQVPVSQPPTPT

Row | Structure (SMILES) | IC50 (Prolyl hydroxylase EGLN2) | inhibition [1] | inhibition [2]
1 | O=C(O)CNC(=O)c1ccccc1O [SALICYLURIC ACID] | > 1000 µM |  | 
2 | O=C(O)CNC(=O)c1ncccc1O | 91.1 µM | inactive | 
3 | O=C(O)CNC(=O)c1ccccn1 | > 1000 µM | inactive | 
4 | O=C(O)c1ccnc(C(=O)O)c1 | 625 µM | inactive | Active

More lines, now with the values ahead:

Row | IC50 (Prolyl hydroxylase EGLN2) | inhibition [1] | inhibition [2] | Structure (SMILES)
5 | 500 µM | inactive |  | O=C(O)C(S)c1cccc(O)c1 (stereo not drawn)
6 | > 1000 µM | inactive |  | O=C(O)C(=O)c1cccc(O)c1
7 |  | inactive |  | O=C(NO)c1cccc(O)c1
